Columns and labels:
[1] = molecular target: T1, 5-hydroxytryptamine receptor 1A (Homo sapiens, UniProt P08908); format: functional, cell-based
T1 sequence (P08908 whole entry): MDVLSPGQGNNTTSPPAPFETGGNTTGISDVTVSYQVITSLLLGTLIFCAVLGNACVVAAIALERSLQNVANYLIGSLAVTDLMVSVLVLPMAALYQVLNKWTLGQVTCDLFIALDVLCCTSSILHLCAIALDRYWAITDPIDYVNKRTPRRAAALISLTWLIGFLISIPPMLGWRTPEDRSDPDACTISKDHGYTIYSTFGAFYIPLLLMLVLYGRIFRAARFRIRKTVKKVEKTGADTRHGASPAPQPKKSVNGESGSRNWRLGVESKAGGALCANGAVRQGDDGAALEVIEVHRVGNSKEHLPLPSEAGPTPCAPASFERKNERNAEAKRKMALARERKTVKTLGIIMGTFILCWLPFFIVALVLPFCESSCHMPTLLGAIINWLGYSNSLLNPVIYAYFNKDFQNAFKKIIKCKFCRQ

Bile salt export pump = Bile salt export pump (Homo sapiens, UniProt O95342); format: functional
[2] = molecular target: Neuronal acetylcholine receptor subunit alpha-4 (Homo sapiens, UniProt P43681)
Adenosine receptor A2a = Adenosine receptor A2a (Homo sapiens, UniProt P29274)
D(3) dopamine receptor = D(3) dopamine receptor (Homo sapiens, UniProt P35462)
[3] = molecular target: 5-hydroxytryptamine receptor 2B (Homo sapiens, UniProt P41595); format: functional, cell-based
[4] = molecular target: T2, Alpha-2A adrenergic receptor (Homo sapiens, UniProt P08913); format: functional, cell-based
T2 sequence (P08913 whole entry): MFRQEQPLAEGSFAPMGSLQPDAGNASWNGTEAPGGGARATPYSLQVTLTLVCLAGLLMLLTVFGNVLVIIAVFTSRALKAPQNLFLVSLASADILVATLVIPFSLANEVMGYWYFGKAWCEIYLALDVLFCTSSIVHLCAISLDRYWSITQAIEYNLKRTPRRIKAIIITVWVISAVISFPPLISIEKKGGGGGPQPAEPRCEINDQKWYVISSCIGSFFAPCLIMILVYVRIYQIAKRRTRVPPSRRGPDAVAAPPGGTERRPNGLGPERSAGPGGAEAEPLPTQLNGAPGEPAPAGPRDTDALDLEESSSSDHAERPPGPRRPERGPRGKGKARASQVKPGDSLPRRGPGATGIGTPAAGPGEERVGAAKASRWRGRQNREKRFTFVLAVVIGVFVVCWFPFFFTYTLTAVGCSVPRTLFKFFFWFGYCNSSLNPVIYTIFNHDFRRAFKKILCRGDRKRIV

Motilin receptor = Motilin receptor (Homo sapiens, UniProt O43193)
[5] = molecular target: T3, 5-hydroxytryptamine receptor 3A (Homo sapiens, UniProt P46098); format: functional
T3 sequence (P46098 whole entry): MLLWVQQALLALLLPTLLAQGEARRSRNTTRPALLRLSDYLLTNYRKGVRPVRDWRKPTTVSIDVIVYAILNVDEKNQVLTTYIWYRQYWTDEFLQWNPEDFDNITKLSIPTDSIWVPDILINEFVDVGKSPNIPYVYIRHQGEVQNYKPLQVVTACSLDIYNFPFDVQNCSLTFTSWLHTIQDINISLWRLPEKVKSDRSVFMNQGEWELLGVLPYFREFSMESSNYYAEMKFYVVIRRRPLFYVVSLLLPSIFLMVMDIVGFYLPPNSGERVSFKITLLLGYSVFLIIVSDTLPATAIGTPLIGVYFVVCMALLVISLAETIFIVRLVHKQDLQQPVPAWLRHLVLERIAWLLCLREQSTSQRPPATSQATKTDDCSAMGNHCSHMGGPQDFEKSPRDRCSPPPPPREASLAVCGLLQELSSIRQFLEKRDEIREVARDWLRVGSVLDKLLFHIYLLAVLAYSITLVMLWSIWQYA

Melanocortin receptor 3 = Melanocortin receptor 3 (Homo sapiens, UniProt P41968)
[6] = molecular target: T4, Type-1 angiotensin II receptor (Homo sapiens, UniProt P30556)
T4 sequence (P30556 whole entry): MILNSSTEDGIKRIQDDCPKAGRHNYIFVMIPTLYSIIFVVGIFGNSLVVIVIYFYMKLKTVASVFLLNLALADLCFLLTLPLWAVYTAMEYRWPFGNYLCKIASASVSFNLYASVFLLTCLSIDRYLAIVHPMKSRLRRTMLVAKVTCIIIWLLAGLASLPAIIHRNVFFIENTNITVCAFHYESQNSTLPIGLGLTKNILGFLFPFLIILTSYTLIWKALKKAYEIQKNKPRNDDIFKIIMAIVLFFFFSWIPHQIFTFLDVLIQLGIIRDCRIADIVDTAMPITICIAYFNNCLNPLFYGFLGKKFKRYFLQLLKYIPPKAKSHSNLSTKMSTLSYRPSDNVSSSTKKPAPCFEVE

Adenosine receptor A3 = molecular target: T5, Adenosine receptor A3 (Homo sapiens, UniProt P0DMS8)
T5 sequence (P0DMS8 whole entry): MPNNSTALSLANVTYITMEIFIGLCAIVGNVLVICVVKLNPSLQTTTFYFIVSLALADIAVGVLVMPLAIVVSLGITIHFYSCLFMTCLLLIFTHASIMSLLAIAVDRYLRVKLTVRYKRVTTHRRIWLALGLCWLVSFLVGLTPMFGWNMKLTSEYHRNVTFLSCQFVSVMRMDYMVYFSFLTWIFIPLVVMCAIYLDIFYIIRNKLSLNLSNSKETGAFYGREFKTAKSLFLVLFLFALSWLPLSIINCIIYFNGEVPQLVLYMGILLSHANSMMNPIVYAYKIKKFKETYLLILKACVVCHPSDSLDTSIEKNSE

[7] = molecular target: Growth hormone secretagogue receptor type 1 (Homo sapiens, UniProt Q92847)
[8] = molecular target: Sodium-dependent noradrenaline transporter (Homo sapiens, UniProt P23975)
Further: assay procedure not described here.

Motilin receptor, sequence (O43193 whole entry): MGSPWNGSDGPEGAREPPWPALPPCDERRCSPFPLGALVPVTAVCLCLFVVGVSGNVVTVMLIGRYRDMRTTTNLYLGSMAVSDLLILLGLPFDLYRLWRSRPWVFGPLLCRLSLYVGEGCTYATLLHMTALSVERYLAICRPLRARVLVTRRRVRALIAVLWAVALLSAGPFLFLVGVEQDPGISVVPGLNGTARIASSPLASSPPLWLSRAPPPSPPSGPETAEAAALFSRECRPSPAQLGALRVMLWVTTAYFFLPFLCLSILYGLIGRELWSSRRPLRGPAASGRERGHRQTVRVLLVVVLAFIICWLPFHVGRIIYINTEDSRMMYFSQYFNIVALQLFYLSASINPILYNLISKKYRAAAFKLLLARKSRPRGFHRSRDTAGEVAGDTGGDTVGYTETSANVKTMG
Melanocortin receptor 3, sequence (P41968 whole entry): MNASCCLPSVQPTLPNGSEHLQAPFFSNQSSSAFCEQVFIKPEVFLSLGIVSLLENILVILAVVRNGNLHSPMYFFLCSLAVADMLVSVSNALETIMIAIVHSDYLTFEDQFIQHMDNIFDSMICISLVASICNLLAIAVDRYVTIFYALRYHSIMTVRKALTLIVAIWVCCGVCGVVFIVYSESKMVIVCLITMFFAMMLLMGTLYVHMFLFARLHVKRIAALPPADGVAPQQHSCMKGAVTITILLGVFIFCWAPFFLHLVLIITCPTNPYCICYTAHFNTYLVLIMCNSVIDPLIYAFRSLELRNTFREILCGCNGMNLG
Sodium-dependent noradrenaline transporter, sequence (P23975 whole entry): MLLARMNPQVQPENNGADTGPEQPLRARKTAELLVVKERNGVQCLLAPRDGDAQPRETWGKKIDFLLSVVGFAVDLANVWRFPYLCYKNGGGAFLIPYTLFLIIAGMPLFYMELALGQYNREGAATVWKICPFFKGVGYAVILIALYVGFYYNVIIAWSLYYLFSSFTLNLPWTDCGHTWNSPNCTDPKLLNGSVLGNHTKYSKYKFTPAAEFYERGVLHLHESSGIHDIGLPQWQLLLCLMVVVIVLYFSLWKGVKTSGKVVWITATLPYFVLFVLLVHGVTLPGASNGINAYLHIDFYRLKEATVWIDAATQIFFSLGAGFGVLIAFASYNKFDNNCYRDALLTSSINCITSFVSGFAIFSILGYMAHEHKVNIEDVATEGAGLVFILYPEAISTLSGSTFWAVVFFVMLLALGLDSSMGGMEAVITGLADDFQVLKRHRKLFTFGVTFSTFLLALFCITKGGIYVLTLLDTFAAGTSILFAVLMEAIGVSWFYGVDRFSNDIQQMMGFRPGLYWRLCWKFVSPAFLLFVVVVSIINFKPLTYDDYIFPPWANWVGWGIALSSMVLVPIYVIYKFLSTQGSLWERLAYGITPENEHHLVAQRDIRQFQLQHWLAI
Neuronal acetylcholine receptor subunit alpha-4, sequence (P43681 whole entry): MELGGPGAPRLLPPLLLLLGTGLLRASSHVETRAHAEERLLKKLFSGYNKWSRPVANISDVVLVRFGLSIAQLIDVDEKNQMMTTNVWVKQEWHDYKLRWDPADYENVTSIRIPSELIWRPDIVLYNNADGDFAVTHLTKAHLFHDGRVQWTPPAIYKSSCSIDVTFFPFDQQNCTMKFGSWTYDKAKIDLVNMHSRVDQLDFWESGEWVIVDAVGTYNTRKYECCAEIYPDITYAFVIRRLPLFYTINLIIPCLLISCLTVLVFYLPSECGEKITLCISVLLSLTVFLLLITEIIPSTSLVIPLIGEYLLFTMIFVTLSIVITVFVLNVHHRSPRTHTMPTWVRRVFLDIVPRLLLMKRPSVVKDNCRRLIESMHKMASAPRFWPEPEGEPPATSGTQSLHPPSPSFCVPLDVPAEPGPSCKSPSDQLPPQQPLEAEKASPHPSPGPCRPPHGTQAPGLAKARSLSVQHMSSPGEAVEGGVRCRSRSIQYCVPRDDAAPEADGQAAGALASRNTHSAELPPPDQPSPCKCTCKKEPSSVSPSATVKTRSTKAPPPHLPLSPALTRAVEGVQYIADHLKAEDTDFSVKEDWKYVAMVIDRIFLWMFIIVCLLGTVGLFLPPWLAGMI
5-hydroxytryptamine receptor 2B, sequence (P41595 whole entry): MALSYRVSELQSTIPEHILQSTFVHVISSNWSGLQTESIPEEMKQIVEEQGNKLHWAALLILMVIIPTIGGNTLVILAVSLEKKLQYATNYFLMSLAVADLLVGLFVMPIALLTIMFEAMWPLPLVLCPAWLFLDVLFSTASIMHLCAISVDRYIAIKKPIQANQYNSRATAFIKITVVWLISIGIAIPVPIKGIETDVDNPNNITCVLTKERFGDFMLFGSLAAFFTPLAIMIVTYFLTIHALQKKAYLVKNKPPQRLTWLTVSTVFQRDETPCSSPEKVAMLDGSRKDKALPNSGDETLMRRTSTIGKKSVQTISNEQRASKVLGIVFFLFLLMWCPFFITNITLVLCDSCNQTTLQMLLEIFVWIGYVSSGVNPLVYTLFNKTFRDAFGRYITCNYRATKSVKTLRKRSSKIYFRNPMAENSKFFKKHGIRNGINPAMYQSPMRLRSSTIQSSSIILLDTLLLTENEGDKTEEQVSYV
D(3) dopamine receptor, sequence (P35462 whole entry): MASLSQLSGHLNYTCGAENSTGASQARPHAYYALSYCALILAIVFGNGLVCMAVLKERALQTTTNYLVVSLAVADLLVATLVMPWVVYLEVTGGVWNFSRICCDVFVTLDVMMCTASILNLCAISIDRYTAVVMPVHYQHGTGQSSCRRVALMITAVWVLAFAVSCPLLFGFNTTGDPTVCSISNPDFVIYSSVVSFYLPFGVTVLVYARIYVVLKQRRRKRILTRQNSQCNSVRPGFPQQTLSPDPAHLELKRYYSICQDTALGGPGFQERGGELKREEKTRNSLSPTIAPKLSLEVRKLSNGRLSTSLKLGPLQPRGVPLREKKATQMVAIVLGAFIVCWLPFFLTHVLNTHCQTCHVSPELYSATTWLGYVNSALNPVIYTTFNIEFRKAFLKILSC
Growth hormone secretagogue receptor type 1, sequence (Q92847 whole entry): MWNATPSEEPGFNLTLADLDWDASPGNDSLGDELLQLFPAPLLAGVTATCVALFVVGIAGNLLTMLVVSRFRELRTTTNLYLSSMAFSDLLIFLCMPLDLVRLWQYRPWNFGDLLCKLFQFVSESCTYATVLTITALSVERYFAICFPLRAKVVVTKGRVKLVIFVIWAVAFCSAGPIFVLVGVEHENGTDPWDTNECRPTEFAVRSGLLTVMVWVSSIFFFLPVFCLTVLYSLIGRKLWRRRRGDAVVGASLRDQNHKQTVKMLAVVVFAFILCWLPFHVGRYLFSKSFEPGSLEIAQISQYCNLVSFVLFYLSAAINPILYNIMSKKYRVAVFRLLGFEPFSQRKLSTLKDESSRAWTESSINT
Adenosine receptor A2a, sequence (P29274 whole entry): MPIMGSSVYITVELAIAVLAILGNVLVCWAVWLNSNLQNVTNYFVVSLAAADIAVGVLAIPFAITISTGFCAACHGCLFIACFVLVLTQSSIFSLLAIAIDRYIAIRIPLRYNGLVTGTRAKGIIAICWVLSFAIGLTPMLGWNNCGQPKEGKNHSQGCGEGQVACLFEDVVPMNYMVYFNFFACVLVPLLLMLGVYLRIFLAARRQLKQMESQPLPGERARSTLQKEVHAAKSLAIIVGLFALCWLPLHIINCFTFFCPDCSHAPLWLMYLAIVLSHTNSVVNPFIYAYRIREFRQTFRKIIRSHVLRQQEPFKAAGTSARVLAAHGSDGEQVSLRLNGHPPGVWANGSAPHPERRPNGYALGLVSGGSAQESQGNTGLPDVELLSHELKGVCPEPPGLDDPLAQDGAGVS
Bile salt export pump, sequence (O95342 whole entry): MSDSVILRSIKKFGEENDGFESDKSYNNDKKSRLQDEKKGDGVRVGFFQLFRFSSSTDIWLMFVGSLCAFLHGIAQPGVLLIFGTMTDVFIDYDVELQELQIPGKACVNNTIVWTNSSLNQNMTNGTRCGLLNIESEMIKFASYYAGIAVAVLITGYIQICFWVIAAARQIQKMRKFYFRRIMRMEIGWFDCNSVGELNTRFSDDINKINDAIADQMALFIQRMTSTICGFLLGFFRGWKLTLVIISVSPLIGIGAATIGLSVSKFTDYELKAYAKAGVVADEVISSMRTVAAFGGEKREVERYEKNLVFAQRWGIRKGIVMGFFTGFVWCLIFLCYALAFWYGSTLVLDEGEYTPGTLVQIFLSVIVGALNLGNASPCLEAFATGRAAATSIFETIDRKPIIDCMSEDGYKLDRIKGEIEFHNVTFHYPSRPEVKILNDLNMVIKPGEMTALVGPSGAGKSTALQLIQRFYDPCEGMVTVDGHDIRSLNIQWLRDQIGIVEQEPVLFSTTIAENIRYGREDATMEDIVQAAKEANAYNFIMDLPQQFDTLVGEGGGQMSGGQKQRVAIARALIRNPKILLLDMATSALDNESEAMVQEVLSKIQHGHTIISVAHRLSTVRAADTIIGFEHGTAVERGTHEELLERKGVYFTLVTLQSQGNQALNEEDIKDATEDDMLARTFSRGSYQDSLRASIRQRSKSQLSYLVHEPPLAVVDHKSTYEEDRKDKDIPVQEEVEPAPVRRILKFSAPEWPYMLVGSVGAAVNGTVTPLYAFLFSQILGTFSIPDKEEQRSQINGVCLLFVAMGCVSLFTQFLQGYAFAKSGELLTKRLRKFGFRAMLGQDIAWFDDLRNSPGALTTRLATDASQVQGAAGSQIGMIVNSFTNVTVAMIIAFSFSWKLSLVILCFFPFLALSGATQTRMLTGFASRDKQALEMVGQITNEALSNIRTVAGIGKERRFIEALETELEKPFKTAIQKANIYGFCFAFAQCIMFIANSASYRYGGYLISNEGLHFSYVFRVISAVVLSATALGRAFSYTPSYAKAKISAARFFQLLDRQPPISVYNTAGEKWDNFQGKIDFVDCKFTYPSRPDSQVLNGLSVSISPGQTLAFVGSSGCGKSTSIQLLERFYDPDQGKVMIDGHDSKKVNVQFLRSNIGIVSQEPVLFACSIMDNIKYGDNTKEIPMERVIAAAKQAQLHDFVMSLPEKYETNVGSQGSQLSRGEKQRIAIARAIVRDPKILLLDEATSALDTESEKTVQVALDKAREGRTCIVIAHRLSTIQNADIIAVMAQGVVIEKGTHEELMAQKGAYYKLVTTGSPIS

CC(C)/N=c1\cc2n(-c3ccc(Cl)cc3)c3ccccc3nc-2cc1Nc1ccc(Cl)cc1 [CLOFAZIMINE]
AC50 [1]: > 30 µM
AC50 (Bile salt export pump): 12 µM
AC50 [2]: > 30 µM
AC50 (Adenosine receptor A2a): > 30 µM
AC50 (D(3) dopamine receptor): > 30 µM
AC50 [3]: > 30 µM
AC50 [4]: > 30 µM
AC50 (Motilin receptor): > 30 µM
AC50 [5]: > 30 µM
AC50 (Melanocortin receptor 3): > 30 µM
AC50 [6]: > 30 µM
AC50 (Adenosine receptor A3): > 30 µM
AC50 [7]: 0.92 µM
AC50 [8]: > 30 µM

C[C@H](Nc1ncnc2[nH]cnc12)c1cc2cccc(Cl)c2c(=O)n1-c1ccccc1 [DUVELISIB]
AC50 [1]: > 30 µM
AC50 (Bile salt export pump): 45 µM
AC50 [2]: > 30 µM
AC50 (Adenosine receptor A2a): > 30 µM
AC50 (D(3) dopamine receptor): > 30 µM
AC50 [3]: > 30 µM
AC50 [4]: > 30 µM
AC50 (Motilin receptor): > 30 µM
AC50 [5]: > 30 µM
AC50 (Melanocortin receptor 3): > 30 µM
AC50 [6]: > 30 µM
AC50 (Adenosine receptor A3): > 30 µM
AC50 [7]: > 30 µM
AC50 [8]: > 30 µM

COC(=O)CCc1ccc(OCC(O)CNC(C)C)cc1 (stereo not drawn) [ESMOLOL]
AC50 [1]: > 30 µM
AC50 (Bile salt export pump): > 300 µM
AC50 [2]: > 30 µM
AC50 (Adenosine receptor A2a): > 30 µM
AC50 (D(3) dopamine receptor): > 30 µM
AC50 [3]: > 30 µM
AC50 [4]: > 30 µM
AC50 (Motilin receptor): > 30 µM
AC50 [5]: > 30 µM
AC50 (Melanocortin receptor 3): > 30 µM
AC50 [6]: > 30 µM
AC50 (Adenosine receptor A3): > 30 µM
AC50 [7]: > 30 µM
AC50 [8]: > 30 µM

C[C@]12CCC(=O)C=C1CC[C@H]1[C@@H]3CC[C@](O)(C(=O)CO)[C@@]3(C)C[C@H](O)[C@@]12F [FLUDROCORTISONE]
AC50 [1]: > 10 µM
AC50 (Bile salt export pump): > 300 µM
AC50 [2]: > 10 µM
AC50 (Adenosine receptor A2a): > 30 µM
AC50 (D(3) dopamine receptor): > 30 µM
AC50 [3]: > 10 µM
AC50 [4]: > 10 µM
AC50 (Motilin receptor): > 10 µM
AC50 [5]: > 30 µM
AC50 (Melanocortin receptor 3): > 30 µM
AC50 [6]: > 30 µM
AC50 (Adenosine receptor A3): > 30 µM
AC50 [7]: > 30 µM
AC50 [8]: > 30 µM

CCOC(=O)Nc1ccc(NCc2ccc(F)cc2)nc1N [FLUPIRTINE]
AC50 [1]: > 30 µM
AC50 (Bile salt export pump): 85 µM
AC50 [2]: > 30 µM
AC50 (Adenosine receptor A2a): > 30 µM
AC50 (D(3) dopamine receptor): > 30 µM
AC50 [3]: > 30 µM
AC50 [4]: > 30 µM
AC50 (Motilin receptor): > 30 µM
AC50 [5]: > 30 µM
AC50 (Melanocortin receptor 3): > 30 µM
AC50 [6]: > 30 µM
AC50 (Adenosine receptor A3): 21 µM
AC50 [7]: > 30 µM
AC50 [8]: > 30 µM

NCC1(CC(=O)O)CCCCC1 [GABAPENTIN]
AC50 [1]: > 30 µM
AC50 (Bile salt export pump): > 300 µM
AC50 [2]: > 30 µM
AC50 (Adenosine receptor A2a): > 30 µM
AC50 (D(3) dopamine receptor): > 30 µM
AC50 [3]: > 30 µM
AC50 [4]: > 30 µM
AC50 (Motilin receptor): > 30 µM
AC50 [5]: > 30 µM
AC50 (Melanocortin receptor 3): > 30 µM
AC50 [6]: > 30 µM
AC50 (Adenosine receptor A3): > 30 µM
AC50 [7]: > 30 µM
AC50 [8]: > 30 µM

CCN(CCO)CCCC(C)Nc1ccnc2cc(Cl)ccc12 (stereo not drawn) [HYDROXYCHLOROQUINE]
AC50 [1]: > 10 µM
AC50 (Bile salt export pump): > 300 µM
AC50 [2]: > 10 µM
AC50 (Adenosine receptor A2a): > 10 µM
AC50 (D(3) dopamine receptor): > 30 µM
AC50 [3]: > 10 µM
AC50 [4]: > 10 µM
AC50 (Motilin receptor): > 10 µM
AC50 [5]: > 30 µM
AC50 (Melanocortin receptor 3): > 10 µM
AC50 [6]: > 10 µM
AC50 (Adenosine receptor A3): > 10 µM
AC50 [7]: > 10 µM
AC50 [8]: > 10 µM
